According to patent US7498406B2, “Substantially cell membrane impermeable compound and use thereof” (priority 1999, dated 2009):

How the values were obtained:
BAE = assay: Proliferation of cultured cells, 72 hr; assay type: cell-based, bovine; conditions: for IC50: 72 hr
Procedure: (§1) BCE (Folkman et al. 1979), BAE, BxPC-3 (ATCC, Bethesda, Md.), HT1080 (Jiang et al., 1999), 3T3 (ATCC, Bethesda, Md.) and BVSM (Hogg et al., 1997) cells were harvested and cultured as indicated. Cells (0.5 mL of 30,000 or 100,000 cells per mL) were seeded into gelatinized 24-well culture plates (Corning Costar, Corning, N.Y.) in Dulbecco's Modified Eagle's Medium (DMEM, JHR Bioscience, Lenexa, Kans.) containing 10% fetal calf serum (FCS, Intergen Comp., Purchase, N.Y.) and 1% Glutamine Pen-Strep (GPS, Irvine Scientific, Santa Ana, Va.) and allowed to attach for 24 hr in 10% CO2 at 37° C. The media was then replaced with DMEM and 1% GPS containing 0 to 1 mM GSAO or GSAA and either 5% bovine calf serum (BCS, HyClone, Logan, Utah) and 1 ng per mL FGF-2 (Genzyme, Cambridge, Mass.) or 5% BCS and 10 ng per mL VEGF (Genzyme, Cambridge, Mass.) for BCE cells, 5% or 10% BCS for BAE cells, 5% BCS for BVSM cells, and 5% FCS for BxPC-3, HT1080 and 3T3 cells. Cells were cultured for 0 to 72 hr in 10% CO2 at 37° C. then dispersed in trypsin/EDTA (GibcoBRL, Granc Island, N.Y.), resuspended in Coulter balanced electrolyte solution and counted with a Z1 Coulter counter (Coulter Corp., Miami, Fla.) in all experiments there were two control wells containing DMEM with 1% GPS and either 5% BCS for BCE cells, 2% BCS for BAE and BVSM cells, or 2% FCS for BxPC-3, HT1080 and 3T3 cells. These wells represented no to limited proliferation.

BCE = assay: Proliferation of cultured cells, 72 hr; assay type: cell-based, bovine; conditions: for IC50: 72 hr
Procedure: FIG. 18. Inhibition of proliferation and reduction in viability of BCE cells by GSAO. 15,000 (part A and B) or 50,000 (part C and D) BCE cells per well were seeded into gelatinised 24-well culture plates and allowed to attach for 24 hr (part A, B and D) or 72 hr (part C). The media was then replaced with DMEM containing 5% BCS and 0 to 1 mM GSAO or GSAA and either 1 ng per mL FGF-2 (part A) or 10 ng per mL VEGF (part B). In part D, the media was replaced with DMEM containing 5% BCS and 1 ng per mL FGF-2 and either 10 μM GSAO or GSAA. In part C, the media was replaced with DMEM containing 5% BCS and 0 to 1 mM GSAO or GSAA. Cells were cultured for 72 hr in parts A, B and C or for discrete times up to 48 hr in part D and then dispersed and counted. The dotted line in parts A, B and C indicate the cell number in control wells containing DMEM and 5% BCS which represented no to limited proliferation. The dotted line in part D represents no change in cell number over the 48 hr. The data points and errors represent the mean and range of duplicate wells.
as §1, with “The media was then replaced with DMEM and 1% GPS containing 0 to 1 mM GSAO or GSAA and either 5% bovine calf serum (BCS, HyClone, Logan, Utah) and 1 ng per mL FGF-2 (Genzyme, Cambridge, Mass.) or 5% BCS and 10 ng per mL VEGF (Genzyme, Cambridge, Mass.) for BCE cells, 5% or 10% BCS for BAE cells, 5% BCS for BVSM cells, and 5% FCS for BxPC-3, HT1080 and 3T3 cells.” left out, “These wells represented no to limited proliferation.” left out

[1] = assay type: in vivo, SCID mice; conditions: for macroscopic differences to untreated mice / morphological changes in heart, lungs, liver, kidneys, spleen: 10 mg per kg per day; for macroscopic differences to untreated mice: end of experiment; for morphological changes in heart, lungs, liver, kidneys, spleen: light microscopy (not shown); for adverse side effects of administration: 2 or 10 mg per kg per day, subcutaneous
Procedure: FIG. 24. […] The data points and errors represent the mean and SE of the animal weights for the experiment described in FIG. 23.
Female 7 to 9 week old SCID or C57Bl6/J mice were used (Massachusetts General Hospital, Boston, Mass.). Mice were held in groups of 3 to 5 at a 12 hour day and night cycle and were fed with animal chow and water ad libidum. SCID mice were anaesthetised by inhalation of isoflurane, the dorsal skin shaved and cleaned with ethanol, and a suspension of 2.5×10^6 BxPC-3 or HT1080 cells in 0.2 mL of DMEM was injected subcutaneously in the proximal midline. C57Bl6/J mice with Lewis lung carcinomas of 0.6-1.2 cm^3 volumes were sacrificed and the skin overlying the tumour was cleaned with betadine and ethanol. Tumour tissue was excised under aseptic conditions and a suspension of tumour cells in 0.9% saline was made by passage of tumour tissue through a sieve and a series of sequentially smaller 22- to 30-gauge hypodermic needles. C57Bl6/J mice were anaesthetised and prepared as for SCID mice and a suspension of Lewis lung carcinoma cells in 0.2 mL of saline was injected subcutaneously in the proximal midline. Tumours were allowed to establish and grow to a size of ˜0.1 cm^3 after which they were randomised into two groups. The tumours were measured in two diameters and tumour volume was calculated using the relationship, tumour volume=a×b^2×0.52, where a is the longest and b the shortest diameters in cm. Animals were treated with either GSAA or GSAO at doses of 2 or 10 mg per kg per day in 0.2 mL of PBS containing 100 mM glycine. The compounds were administered subcutaneously at a site distant from the tumour. Tumour volume and animal weight was measured every 3 days. The tumours were excised and weighed when the animals were sacrificed.
At the conclusion of the experiment described in FIG. 23B the mice from both treatment groups were examined. […] The heart, lungs, liver, kidneys, and spleen of the GSAA or GSAO-treated and untreated mice were fixed in formaldehyde, embedded in paraffin, sectioned, stained with haematoxylin and eosin and examined by light microscopy.

BxPc3 = assay: Proliferation of cultured cells, 72 hr; assay type: cell-based, human; conditions: 5% FCS, 0 to 1 mM
Procedure: FIG. 19. Effect of GSAO on proliferation of non-endothelial cells. 15,000 BxPC-3 (part A), HT1080 (part B), 3T3 (part C) or BVSM (part D) cells per well were seeded into gelatinised 24-well culture plates and allowed to attach for 24 hr. The media was then replaced with DMEM containing 0 to 1 mM GSAO or GSAA and either 5% BCS (part D) or 5% FCS (parts A, B and C). Cells were cultured for 72 hr and then dispersed and counted. The dotted lines indicate the cell number in control wells containing DMEM and 2% BCS (part D) or 2% FCS (parts A, B and C) which represented no to limited proliferation. The data points and errors represent the mean and range of duplicate wells.
as §1

With `N[C@@H](CCC(=O)N[C@@H](CSCC(=O)Nc1ccc([As](=O)(O)O)cc1)C(=O)NCC(=O)O)C(=O)O` [GSAA, 4-(N-(S-glutathionylacetyl)amino)phenylarsonic acid, reference compound] the “effect on proliferation of BAE cells” value (BAE; not shown) was “did not effect either proliferation or viability”, the “effect on proliferation of BCE cells” value (BCE; highest concentration used, 1 mM) was “only a marginal effect on proliferation” and the “macroscopic differences to untreated mice” value [1] was “no apparent macroscopic differences”. The “morphological changes in heart, lungs, liver, kidneys, spleen” value [1] was “no obvious morphological changes”, the “adverse side effects of administration” value [1] was “no apparent adverse side effects” and the “Proliferation IC50” value (BxPc3) was “no significant effect”.
For `NC(CCC(=O)NC(CSCC(=O)Nc1ccc([As]=O)cc1)C(=O)NCC(=O)O)C(=O)O` (centres unmarked) [GSAO, 4-(N-(S-glutathionylacetyl)amino)-phenylarsenoxide], the IC50 (BAE; 5% BCS) was ~20 nM, the IC50 (BAE; 10% BCS) was ~200 nM and the IC50 (BCE; 5% BCS + 1 ng/mL FGF-2) was ~100 nM. For the same molecule, the IC50 (BCE; 5% BCS + 10 ng/mL VEGF) was ~50 nM, the “macroscopic differences to untreated mice” value [1] was “no apparent macroscopic differences” and the “morphological changes in heart, lungs, liver, kidneys, spleen” value [1] was “no obvious morphological changes”. The “adverse side effects of administration” value [1] was “no apparent adverse side effects” and the “Proliferation IC50” value (BxPc3) was “did not affect the proliferation”.
